Experimental findings from patent publication US10369123B2, “Perk activator for the treatment of neurodegenerative diseases” (DEUTSCHES ZENTRUM FÜR NEURODEGENERATIVE ERKRANKUNGEN E.V. …, priority 2014, dated 2019) are described below.

This assay relates to 4R-tau and 3R-tau isoforms. Briefly: Western blot of 3R-/4R-tau isoforms, annonacin model. The assay is classed as cell-based, human. The settings on record: annonacin 25 nM + PERK activator, 48 h. The protocol:
Nunc™ Nunclon™ Delta 6-well (for protein and mRNA) or 48-well (for cell assays) plates (Thermo Fisher Scientific, Waltham, Mass., USA) were coated with 100 μg/ml poly-L-lysine (Sigma-Aldrich, St. Louis, Mo., USA) and 5 μg/ml fibronectin (Sigma-Aldrich). LUHMES (Lund Human Mesencephalic) cells, derived from human embryonic ventral mesencephalic cells by conditional immortalization (Tet-off v-myc over-expression) were seeded out in a concentration of 130,000 cells/cm^2 to achieve a confluence of 50%. They were then differentiated for 8 days in a medium of DMEM/F12 (Sigma-Aldrich), 1 μg/ml tetracycline, […] and 490 μg/ml dbcAMP into post-mitotic neurons with a dopaminergic phenotype (Lotharius et al. 2005). […]
Protein was extracted by scraping the cells from the culture plate with Mammalian Protein Extraction Reagent (M-PER, Thermo Fisher Scientific) and 1× cOmplete Protease Inhibitor Cocktail Tablets (Hoffmann-La Roche, Basel, Switzerland) and 1× PhosSTOP Phosphatase Inhibitor Cocktail Tablets (Hoffmann-La Roche). […] Protein concentrations were determined using the BCA kit (Thermo Fisher Scientific) by heating the samples at 60° C. for 30 min and measuring the absorption on the NanoDrop 2000c Spectrophotometer (Thermo Fisher Scientific). […]
In general terms: In western blotting, separated proteins are transferred to a membrane and probed.

Take `CCN(CC)CCC(=O)N1N=C(c2c(-c3ccccc3)c3cc(Br)ccc3[nH]c2=O)CC1c1ccc(Br)cc1` (stereo not shown) [CCT020312, 6-bromo-3-[5-(4-bromo-phenyl)-1-(3-diethylamino-propionyl)-4,5-dihydro-1H-pyrazol-3-yl]-4-phenyl-1H-quinolin-2-one]: the 4R-tau protein amount entry is recorded as “reduced”.
